Holding throughout (assay): NCI anticancer screen, dose series, 48 h
In assay [1] the test system is HL-60(TB) leukemia.
For assay [2], the system named is UACC-62 melanoma.
Assay [3] relates to M14 melanoma.
Assay [4] relates to SK-MEL-5 melanoma.
Assay [5] deals with HCC-2998 colon.
Assay [6] deals with OVCAR-5 ovarian.
Assay [7] has as its system HT29 colon.
Assay [8] relates to OVCAR-3 ovarian.
In assay [9] the test system is NCI-H226 lung.
Assay [10] deals with TK-10 renal.

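1) Cells in 96-well plates. 2) Compound, 48 h, 5 concentrations. 3) Linear interpolation between surrounding doses. 4) Unreached endpoint = highest concentration. GI50 is the concentration that inhibits growth by half. Definition used: TGI = concentration required for complete inhibition of growth.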

`O=c1c2cc([N+](=O)[O-])cnc2sn1-c1ccc(Br)cc1`: the TGI in assay [1] was 80.7 µM; in [2], greater than 100 µM; in assay [3] it was greater than 100 µM; in [4] it was greater than 100 µM; in [5], greater than 100 µM; in assay [6] it was greater than 100 µM. Further, the TGI in [7] was 79.2 µM; in assay [8] it was greater than 100 µM; in [9], greater than 100 µM; in [10], greater than 100 µM.
Turning to `COc1ccc(-c2c(C#N)cnc(N)c2-c2nc3cc(C)c(C)cc3[nH]2)cc1`, the GI50 in assay [1] was 83.6 µM; in assay [2], 7.22 µM; in [3], 6.61 µM; in [4] it was 8.78 µM; in assay [5], 11 µM; in assay [6], 52.4 µM. Further, the GI50 was 4.79 µM in assay [7], 14.8 µM in assay [8], 16.4 µM in [9] and 5.94 µM in [10]. Besides, the TGI in assay [1], in assay [2], in assay [3], in [4], in assay [5] and in [6] was greater than 100 µM each time. The TGI is greater than 100 µM in assay [7], 30.4 µM in [8], greater than 100 µM in assay [9] and 26.4 µM in [10].
As to `NCCSc1nc(N)c2ncn(C3OC(CO)C(O)C3O)c2n1` (stereo not given), the TGI in [1], in [2], in [3], in assay [4], in assay [5] and in assay [6] was greater than 100 µM each time. Further, the TGI in [7], in assay [8], in [9] and in assay [10] was greater than 100 µM throughout.
As for `O=C(CC(C(=O)c1cccs1)c1ccccc1)c1ccccc1O` (stereo not given), the TGI in assay [1] was greater than 44 µM; in [2], greater than 44.6 µM; in assay [3] it was greater than 100 µM; in assay [4], greater than 100 µM; in assay [5], greater than 100 µM; in assay [6] it was greater than 100 µM. The TGI is greater than 100 µM in [7], greater than 100 µM in assay [8], greater than 100 µM in [9] and greater than 74.5 µM in assay [10].
As for `COc1ccc(NC(C)=O)cc1N1C(=O)/C(=C\c2cccc(Oc3ccccc3)c2)SC1c1ccccc1` (stereo not given), the TGI in [1] was 37.9 µM; in assay [2], greater than 100 µM; in assay [3], greater than 100 µM; in assay [4], greater than 100 µM; in assay [5], greater than 100 µM; in assay [6], greater than 100 µM. Moreover, the TGI in assay [7] was 45.5 µM; in [8], 71.3 µM; in assay [9], greater than 100 µM; in assay [10], greater than 100 µM.
Turning to `Cc1cn(C2CC(O)C(Cn3nncc3Cn3ccc(=O)[nH]c3=O)O2)c(=O)[nH]c1=O` (stereo not given), the TGI in assay [1], in assay [2], in [3], in assay [4], in assay [5] and in assay [6] was greater than 100 µM in each case. In addition, the TGI in assay [7], in assay [8], in assay [9] and in assay [10] was greater than 100 µM throughout.
Take `Nc1ccc2c(c1)S(=O)(=O)c1cc(N)ccc1-2`: the TGI in assay [1], in [2], in assay [3], in [4], in assay [5] and in [6] was greater than 100 µM in each case. For the same molecule, the TGI in assay [7], in assay [8], in assay [9] and in assay [10] was greater than 100 µM in each case.
As for `Cc1cccc(/C=C2\CCCCCC2=O)c1`, the TGI in assay [1], in assay [2], in assay [3], in assay [4], in [5] and in [6] was greater than 100 µM in each case. Further, the TGI in [7], in [8], in assay [9] and in assay [10] was greater than 100 µM throughout.
Consider `Nc1c(O)c(C(=O)O)cc2ccccc12`, for which the TGI in assay [1] was greater than 100 µM; in [2], 31.6 µM; in [3], 35.2 µM; in [4], 27.9 µM; in assay [5], greater than 100 µM; in [6], 41.2 µM. For the same molecule, the TGI in [7] was 31.8 µM; in assay [8], 94.5 µM; in [9] it was 99.8 µM; in [10], greater than 100 µM.
As to `COc1cc2c3c4c1OCc1c5c(cc(c1-4)CC3[N+](C)(C)CC2)OCO5` (stereo not given), the TGI in [1], in assay [2], in assay [3], in assay [4], in assay [5] and in assay [6] was greater than 100 µM in each case. In addition, the TGI in [7], in assay [8], in [9] and in assay [10] was greater than 100 µM throughout.
On to `COc1ccc(-c2cc(-c3ccccc3)nc(N)n2)c(O)c1`, for which the TGI was greater than 20.6 µM in [1]; greater than 100 µM in [2]; greater than 100 µM in assay [3]; greater than 100 µM in assay [4]; greater than 100 µM in [5]; greater than 100 µM in assay [6]. Further, the TGI in assay [7], in assay [8], in assay [9] and in assay [10] was greater than 100 µM throughout.
For the molecule `CCOC(=O)C1C(=O)c2cccc(OC)c2C2COC(=O)N12` (stereo not given), the TGI in assay [1], in [2], in assay [3], in assay [4], in assay [5] and in assay [6] was greater than 100 µM each time. Also, the TGI in [7], in [8], in [9] and in assay [10] was greater than 100 µM throughout.
Take `COC(=O)C(=O)C(C(=O)C(=O)Nc1nc(=S)[nH][nH]1)c1nc2ccc([N+](=O)[O-])cc2[nH]c1=O` (stereo not given): the TGI in [1], in [2], in assay [3], in assay [4], in assay [5] and in assay [6] was greater than 100 µM in each case. Also, the TGI in assay [7], in assay [8], in assay [9] and in assay [10] was greater than 100 µM each time.
Turning to `CCOc1ccccc1NC(=O)C(=O)c1c(O)c2ccc(O)cc2oc1=O`, the TGI in assay [1], in [2], in assay [3], in [4], in [5] and in assay [6] was greater than 100 µM throughout. Also, the TGI in assay [7], in assay [8], in assay [9] and in assay [10] was greater than 100 µM each time.
For `CCCCCCCCC(=O)NCCN(CCN)C(=O)CCCCCCCC`, the TGI in [1] worked out at 5.32 µM; in assay [2] it was 21.9 µM; in assay [3] it was 22 µM; in assay [4] it was 26.4 µM; in [5] it was 24.3 µM; in assay [6], 30.5 µM. The TGI in assay [7] was determined as 7.15 µM; in [8], 30.9 µM; in assay [9], 37.1 µM; in [10], 30 µM.
For `COc1cc(C2SC(N)=Nc3c2c(C)nn3C(=O)c2ccc(Cl)cc2)ccc1O` (stereo not given), the TGI in assay [1], in assay [2], in assay [3], in [4], in assay [5] and in assay [6] was greater than 10 µM throughout. In addition, the TGI in [7], in assay [8], in [9] and in assay [10] was greater than 10 µM each time.
Consider `COC(=O)/C=C/N1CC1`, for which the TGI in [1], in assay [2], in [3], in [4], in [5] and in assay [6] was greater than 10 µM in each case. Also, the TGI in assay [7], in [8], in assay [9] and in assay [10] was greater than 10 µM throughout.
As for `CC(=O)CC(=O)ON(C)C(=O)Cc1ccccc1`, the TGI in [1], in assay [2], in assay [3], in assay [4], in assay [5] and in assay [6] was greater than 100 µM in each case. For the same molecule, the TGI in assay [7], in [8], in [9] and in [10] was greater than 100 µM each time.
`Cc1ccccc1NC(=O)CC(=O)n1nc(-c2ccccc2)c(N=Nc2ccc([N+](=O)[O-])cc2)c1-c1ccccc1`: the TGI is 60.5 µM in [1]; 29.6 µM in assay [2]; 33.3 µM in assay [3]; 25.9 µM in [4]; 51.3 µM in assay [5]; greater than 100 µM in assay [6]. The TGI in assay [7] was 24.5 µM; in [8], 37.3 µM; in assay [9] it was 58.4 µM; in [10] it was greater than 100 µM.
With `CC1OC(n2cnc3c(N)nc(Cl)nc32)C(C)(O)C1O` (stereo not given), the TGI in [1], in assay [2], in assay [3], in assay [4], in [5] and in assay [6] was greater than 25 µM throughout. In addition, the TGI in [7], in [8], in [9] and in [10] was greater than 25 µM each time.
As to `CCOC(=O)c1c[nH]c2cc3c(cc2c1=O)CCS3`, the TGI in [1], in [2], in assay [3], in assay [4], in [5] and in assay [6] was greater than 100 µM each time. The TGI in assay [7], in assay [8], in [9] and in [10] was greater than 100 µM in each case.
`Cc1ccc(NCc2nnc3c(-c4ccccc4)nc4ccccc4n23)cc1`: the TGI was 68.3 µM in assay [1]; greater than 100 µM in assay [2]; greater than 100 µM in [3]; 30.4 µM in [4]; greater than 100 µM in assay [5]; greater than 100 µM in assay [6]. The TGI in assay [7], in assay [8], in assay [9] and in [10] was greater than 100 µM throughout.
Consider `CN1C(=O)C(O)C[C@@H]1c1ccc(F)cc1` (stereo not given in full), for which the TGI in assay [1], in assay [2], in assay [3], in assay [4], in [5] and in [6] was greater than 100 µM each time. Further, the TGI in assay [7], in assay [8], in [9] and in [10] was greater than 100 µM each time.

The values are drawn from PubChem BioAssay (NCI).
